{"source": "patent US20220213030A1", "about": "“AMINOGUANIDINE HYDRAZONES AS RETROMER STABILIZERS USEFUL FOR TREATING NEUROLOGICAL DISEASES” (OSPEDALE SAN RAFFAELE SRL, priority 2019, published 2022)", "key": {"VPS35 [1]": {"biological_target": "VPS35 (Homo sapiens, UniProt Q96QK1+Q9UBQ0)", "set-up": "host or cells: neuronal cultures", "settings": "neuronal cultures; cited from earlier work"}, "VPS35 [2]": {"biological_target": "T1, VPS35 (Mus musculus, UniProt Q9EQH3+Q9QZ88)", "experiment": "VPS35 levels in spinal cord extracts of C57BL6J mice by western blot", "format": "in vivo", "set-up": "Lumbar spinal cords were dissected from saline perfused mice and rapidly homogenized; from tissue; host or cells: lumbar spinal cord of mice", "settings": "10 mg/kg daily intraperitoneal for 7 days", "description": "We next asked whether the compound 2a can cross the blood brain barrier (BBB) of the brain. We run a pharmacokinetic assay on C57BL6J mice that received daily intraperitoneal injections of compound 2a (10 mg/Kg/day). Mice were sacrificed after 1, 7, 15 and 30 days saline perfused to avoid the CNS contamination of compounds contained in blood circulation and brains used for the determination of compound 2a levels by mass spectrometry. […] We next investigated in vivo if the retromer stabilization occurs in response to Compound 2a treatment. We intraperitoneally injected R55 and Compound 2a in adult C57BL6J mice as above described. After one week, mice were sacrificed, proteins extracts were assayed by western blot.\nLumbar spinal cords were dissected from saline perfused mice and rapidly homogenized in the following lysis buffer: Tris-HCl 10 mM pH 8, EDTA pH 8 1 mM, NaCl 100 mM, NP40 1% and protease inhibitor cocktail (Sigma). Protein extracts were obtained using a tight-fitting glass Potter tissue grinder (1 ml; Wheaton) and then sonicated at a frequency of 20 kHz (10 times-1s). […] Protein concentrations were measured by BCA protein assay kit (Thermofisher) according to the manufacturer's recommendations. […] Quantifications were done using the Image Lab 6.0.1 software (Bio-Rad)."}, "Aβ40": {"system": "Aβ40", "settings": "wild type and APP-mutated hippocampal neurons; cited from earlier work"}, "neuronal cultures": {"system": "neuronal cultures", "settings": "cited from earlier work"}, "VPS26": {"system": "VPS26", "settings": "neuronal cultures; cited from earlier work"}, "VPS35 [3]": {"biological_target": "T1, VPS35", "experiment": "VPS35 levels in Neuro2a cells by Western blot (screening of amino guanidine hydrazones)", "format": "cell-based", "set-up": "endogenous in cells; host or cells: Neuro2a", "settings": "48 hours, compounds at 10 μM", "description": "To functionally screen the majority of synthetized amino guanidine hydrazones of the invention and determine their effects on the retromer complex, we incubated Neuro2a cells with each synthetized molecule at the concentration of 10 μM.\nThe test was executed in triplicate for each tested compound of the invention, cells lysates were established after 48 hours' incubation, and levels of VPS35 were normalized on the housekeeping gene β-Actin by Western blot. We observed a preliminary SAR among the compounds.\nFold changes are calculated over normalized VPS35 levels measured in vehicle-treated cells.\nNeuro2a cells were seeded on 12 wells multiwell at the concentration of 100 000 cells/well. Cells were incubated with each compound, including the standard R55, at 10 μM for 48 hours. Cells were then washed in PBS 1× and lysed in a buffer containing Tris-HCl 10 mM pH8, EDTA 1 mM pH8, NaCl 100 mM, NP40 1%, with protease inhibitor cocktail (Sigma) 1×. Using a cell scraper total lysates were collected from each well, quantified with BCA (BCA protein assay, Thermofisher). Five μg were resolved on precast 10% acrylamide gel (Biorad). Proteins were transferred to a PVDF membrane (Millipore) and western blot were performed using the following antibodies: goat αVPS35 (1:1000), mouse α-βActin (1:10000). Detection of proteins was obtained by a chemiluminescence detection kit (PerkinElmer)."}, "CMC": {"biological_target": "CMC (Homo sapiens, UniProt Q96QK1+Q9UBQ0)", "settings": "in vitro; cited from earlier work"}, "Aβ42": {"system": "Aβ42", "settings": "wild type and APP-mutated hippocampal neurons; cited from earlier work"}}, "data": [{"smiles": "N=C(N)SCc1ccc(CSC(=N)N)s1", "note": "[Compound R55]", "values": [{"measurement": "VPS35 levels", "setting": "VPS35 [1]", "value": "≈ 180%"}, {"measurement": "VPS35 levels in SC extracts (ratio versus vehicle-treated mice)", "setting": "VPS35 [2]", "value": "did not increase VPS35 levels"}, {"measurement": "reduction of Aβ40 levels", "setting": "Aβ40", "value": "up to 44%"}, {"measurement": "not toxic up to (concentration)", "setting": "neuronal cultures", "value": "up to 50 μM"}, {"measurement": "VPS26 levels", "setting": "VPS26", "value": "≈ 150%"}, {"measurement": "VPS35 levels (in words)", "setting": "VPS35 [3]", "value": "efficiently and dose-dependently increased VPS35 levels"}, {"measurement": "increase in denaturation temperature", "setting": "CMC", "value": "≈ 10 °C"}, {"measurement": "reduction of Aβ42 levels", "setting": "Aβ42", "value": "up to 39%"}]}]}
